Assay results from ChEMBL document CHEMBL1671689, “Activity of ceftaroline against recent emerging serotypes of Streptococcus pneumoniae in the United States” (2010).
Values after ≈ are worked out from the molar mass of the structure shown.

How the values were obtained:
Assay type in all cases: functional
Streptococcus pneumoniae [1] = assay: Antimicrobial activity against Streptococcus pneumoniae serotype 35B by broth microdilution method
Streptococcus pneumoniae [2] = assay: Antimicrobial activity against multiple drug resistant Streptococcus pneumoniae serotype 19A by broth microdilution method
Streptococcus pneumoniae [3] = assay: Antimicrobial activity against multiple drug resistant Streptococcus pneumoniae serotype 19A assessed as percent susceptible isolates by broth microdilution method
Streptococcus pneumoniae [4] = assay: Antimicrobial activity against Streptococcus pneumoniae serotype 19F assessed as percent susceptible isolates by broth microdilution method
Streptococcus pneumoniae [5] = assay: Antimicrobial activity against Streptococcus pneumoniae serotype 22F assessed as percent susceptible isolates by broth microdilution method
Streptococcus pneumoniae [6] = assay: Antimicrobial activity against Streptococcus pneumoniae serotype 3 by broth microdilution method
Streptococcus pneumoniae [7] = assay: Antimicrobial activity against multiple drug resistant Streptococcus pneumoniae serotype 19F by broth microdilution method
Streptococcus pneumoniae [8] = assay: Antimicrobial activity against Streptococcus pneumoniae serotype 19A assessed as percent susceptible isolates by broth microdilution method
Streptococcus pneumoniae [9] = assay: Antimicrobial activity against Streptococcus pneumoniae serotype 35B assessed as percent susceptible isolates by broth microdilution method
Streptococcus pneumoniae [10] = assay: Antimicrobial activity against Streptococcus pneumoniae serotype 23B assessed as percent susceptible isolates by broth microdilution method
Streptococcus pneumoniae [11] = assay: Antimicrobial activity against Streptococcus pneumoniae serotype 7F by broth microdilution method
Streptococcus pneumoniae [12] = assay: Antimicrobial activity against Streptococcus pneumoniae serotype 15A assessed as percent susceptible isolates by broth microdilution method
Streptococcus pneumoniae [13] = assay: Antimicrobial activity against Streptococcus pneumoniae serotype 19A by broth microdilution method
Streptococcus pneumoniae [14] = assay: Antimicrobial activity against Streptococcus pneumoniae serotype 3 assessed as percent susceptible isolates by broth microdilution method
Streptococcus pneumoniae [15] = assay: Antimicrobial activity against Streptococcus pneumoniae serotype 11A assessed as percent susceptible isolates by broth microdilution method
Streptococcus pneumoniae [16] = assay: Antimicrobial activity against Streptococcus pneumoniae serotype 7F assessed as percent susceptible isolates by broth microdilution method
Streptococcus pneumoniae [17] = assay: Antimicrobial activity against multiple drug resistant Streptococcus pneumoniae serotype 6B by broth microdilution method
Streptococcus pneumoniae [18] = assay: Antimicrobial activity against Streptococcus pneumoniae serotype 6C by broth microdilution method
Streptococcus pneumoniae [19] = assay: Antimicrobial activity against Streptococcus pneumoniae serotype 6C assessed as percent susceptible isolates by broth microdilution method
Streptococcus pneumoniae [20] = assay: Antimicrobial activity against multiple drug resistant Streptococcus pneumoniae serotype 6B assessed as percent susceptible isolates by broth microdilution method
Streptococcus pneumoniae [21] = assay: Antimicrobial activity against Streptococcus pneumoniae serotype 23A assessed as percent susceptible isolates by broth microdilution method
Streptococcus pneumoniae [22] = assay: Antimicrobial activity against multiple drug resistant Streptococcus pneumoniae serotype 19F assessed as percent susceptible isolates by broth microdilution method
Streptococcus pneumoniae [23] = assay: Antimicrobial activity against Streptococcus pneumoniae serotype 11A by broth microdilution method

CC1(C)S[C@@H]2[C@H](NC(=O)Cc3ccccc3)C(=O)N2[C@H]1C(=O)O [PENICILLIN G]
MIC50 (Streptococcus pneumoniae [1]): 2 µg/mL (≈ 5.98 µM)
MIC90 (Streptococcus pneumoniae [1]): 2 µg/mL (≈ 5.98 µM)
MIC50 (Streptococcus pneumoniae [2]): 4 µg/mL (≈ 12 µM)
MIC90 (Streptococcus pneumoniae [2]): 4 µg/mL (≈ 12 µM)
Activity (Streptococcus pneumoniae [3]): 11.4%
Activity (Streptococcus pneumoniae [4]): 37.9%
Activity (Streptococcus pneumoniae [5]): 100%
MIC (Streptococcus pneumoniae [6]): ≤ 0.03 µg/mL
MIC50 (Streptococcus pneumoniae [6]): ≤ 0.03 µg/mL
MIC90 (Streptococcus pneumoniae [6]): ≤ 0.03 µg/mL
MIC50 (Streptococcus pneumoniae [7]): 4 µg/mL (≈ 12 µM)
MIC90 (Streptococcus pneumoniae [7]): 4 µg/mL (≈ 12 µM)
Activity (Streptococcus pneumoniae [8]): 46.6%
Activity (Streptococcus pneumoniae [9]): 98.3%
Activity (Streptococcus pneumoniae [10]): 100%
MIC (Streptococcus pneumoniae [11]): ≤ 0.03 µg/mL
MIC50 (Streptococcus pneumoniae [11]): ≤ 0.03 µg/mL
MIC90 (Streptococcus pneumoniae [11]): ≤ 0.03 µg/mL
Activity (Streptococcus pneumoniae [12]): 100%
MIC50 (Streptococcus pneumoniae [13]): 4 µg/mL (≈ 12 µM)
MIC90 (Streptococcus pneumoniae [13]): 4 µg/mL (≈ 12 µM)
Activity (Streptococcus pneumoniae [14]): 100%
Activity (Streptococcus pneumoniae [15]): 100%
Activity (Streptococcus pneumoniae [16]): 98.3%
MIC50 (Streptococcus pneumoniae [17]): 4 µg/mL (≈ 12 µM)
MIC90 (Streptococcus pneumoniae [17]): 4 µg/mL (≈ 12 µM)
MIC50 (Streptococcus pneumoniae [18]): 0.5 µg/mL (≈ 1.5 µM)
MIC90 (Streptococcus pneumoniae [18]): 1 µg/mL (≈ 2.99 µM)
Activity (Streptococcus pneumoniae [19]): 100%
Activity (Streptococcus pneumoniae [20]): 11.4%
Activity (Streptococcus pneumoniae [21]): 100%
Activity (Streptococcus pneumoniae [22]): 11.4%
MIC (Streptococcus pneumoniae [23]): ≤ 0.03 µg/mL
MIC50 (Streptococcus pneumoniae [23]): ≤ 0.03 µg/mL
MIC90 (Streptococcus pneumoniae [23]): ≤ 0.03 µg/mL

CC1(C)S[C@@H]2[C@H](NC(=O)COc3ccccc3)C(=O)N2[C@H]1C(=O)O [PENICILLIN V]
MIC50 (Streptococcus pneumoniae [1]): 2 µg/mL (≈ 5.71 µM)
MIC90 (Streptococcus pneumoniae [1]): 2 µg/mL (≈ 5.71 µM)
MIC50 (Streptococcus pneumoniae [2]): 4 µg/mL (≈ 11.4 µM)
MIC90 (Streptococcus pneumoniae [2]): 4 µg/mL (≈ 11.4 µM)
Activity (Streptococcus pneumoniae [3]): 0%
Activity (Streptococcus pneumoniae [4]): 20.7%
Activity (Streptococcus pneumoniae [5]): 100%
MIC (Streptococcus pneumoniae [6]): ≤ 0.03 µg/mL
MIC50 (Streptococcus pneumoniae [6]): ≤ 0.03 µg/mL
MIC90 (Streptococcus pneumoniae [6]): ≤ 0.03 µg/mL
MIC50 (Streptococcus pneumoniae [7]): 4 µg/mL (≈ 11.4 µM)
MIC90 (Streptococcus pneumoniae [7]): 4 µg/mL (≈ 11.4 µM)
Activity (Streptococcus pneumoniae [8]): 13.8%
Activity (Streptococcus pneumoniae [9]): 10.2%
Activity (Streptococcus pneumoniae [10]): 84.8%
MIC (Streptococcus pneumoniae [11]): ≤ 0.03 µg/mL
MIC50 (Streptococcus pneumoniae [11]): ≤ 0.03 µg/mL
MIC90 (Streptococcus pneumoniae [11]): ≤ 0.03 µg/mL
Activity (Streptococcus pneumoniae [12]): 10.5%
MIC50 (Streptococcus pneumoniae [13]): 4 µg/mL (≈ 11.4 µM)
MIC90 (Streptococcus pneumoniae [13]): 4 µg/mL (≈ 11.4 µM)
Activity (Streptococcus pneumoniae [14]): 98.8%
Activity (Streptococcus pneumoniae [15]): 95.9%
Activity (Streptococcus pneumoniae [16]): 10.2%
MIC50 (Streptococcus pneumoniae [17]): 4 µg/mL (≈ 11.4 µM)
MIC90 (Streptococcus pneumoniae [17]): 4 µg/mL (≈ 11.4 µM)
MIC50 (Streptococcus pneumoniae [18]): 0.5 µg/mL (≈ 1.43 µM)
MIC90 (Streptococcus pneumoniae [18]): 1 µg/mL (≈ 2.85 µM)
Activity (Streptococcus pneumoniae [19]): 37.2%
Activity (Streptococcus pneumoniae [20]): 0%
Activity (Streptococcus pneumoniae [21]): 36.4%
Activity (Streptococcus pneumoniae [22]): 0%
MIC (Streptococcus pneumoniae [23]): ≤ 0.03 µg/mL
MIC50 (Streptococcus pneumoniae [23]): ≤ 0.03 µg/mL
MIC90 (Streptococcus pneumoniae [23]): ≤ 0.03 µg/mL

CN[C@H](CC(C)C)C(=O)N[C@H]1C(=O)N[C@@H](CC(N)=O)C(=O)N[C@H]2C(=O)N[C@H]3C(=O)N[C@H](C(=O)N[C@H](C(=O)O)c4cc(O)cc(O)c4-c4cc3ccc4O)[C@H](O)c3ccc(c(Cl)c3)Oc3cc2cc(c3O[C@@H]2O[C@H](CO)[C@@H](O)[C@H](O)[C@H]2O[C@H]2C[C@](C)(N)[C@H](O)[C@H](C)O2)Oc2ccc(cc2Cl)[C@H]1O [VANCOMYCIN]
MIC (Streptococcus pneumoniae [1]): ≤ 1 µg/mL
MIC50 (Streptococcus pneumoniae [1]): ≤ 1 µg/mL
MIC90 (Streptococcus pneumoniae [1]): ≤ 1 µg/mL
MIC (Streptococcus pneumoniae [2]): ≤ 1 µg/mL
MIC50 (Streptococcus pneumoniae [2]): ≤ 1 µg/mL
MIC90 (Streptococcus pneumoniae [2]): ≤ 1 µg/mL
Activity (Streptococcus pneumoniae [3]): 100%
Activity (Streptococcus pneumoniae [4]): 100%
Activity (Streptococcus pneumoniae [5]): 100%
MIC (Streptococcus pneumoniae [6]): ≤ 1 µg/mL
MIC50 (Streptococcus pneumoniae [6]): ≤ 1 µg/mL
MIC90 (Streptococcus pneumoniae [6]): ≤ 1 µg/mL
MIC (Streptococcus pneumoniae [7]): ≤ 1 µg/mL
MIC50 (Streptococcus pneumoniae [7]): ≤ 1 µg/mL
MIC90 (Streptococcus pneumoniae [7]): ≤ 1 µg/mL
Activity (Streptococcus pneumoniae [8]): 100%
Activity (Streptococcus pneumoniae [9]): 100%
Activity (Streptococcus pneumoniae [10]): 100%
MIC (Streptococcus pneumoniae [11]): ≤ 1 µg/mL
MIC50 (Streptococcus pneumoniae [11]): ≤ 1 µg/mL
MIC90 (Streptococcus pneumoniae [11]): ≤ 1 µg/mL
Activity (Streptococcus pneumoniae [12]): 100%
MIC (Streptococcus pneumoniae [13]): ≤ 1 µg/mL
MIC50 (Streptococcus pneumoniae [13]): ≤ 1 µg/mL
MIC90 (Streptococcus pneumoniae [13]): ≤ 1 µg/mL
Activity (Streptococcus pneumoniae [14]): 100%
Activity (Streptococcus pneumoniae [15]): 100%
Activity (Streptococcus pneumoniae [16]): 100%
MIC (Streptococcus pneumoniae [17]): ≤ 1 µg/mL
MIC50 (Streptococcus pneumoniae [17]): ≤ 1 µg/mL
MIC90 (Streptococcus pneumoniae [17]): ≤ 1 µg/mL
MIC (Streptococcus pneumoniae [18]): ≤ 1 µg/mL
MIC50 (Streptococcus pneumoniae [18]): ≤ 1 µg/mL
MIC90 (Streptococcus pneumoniae [18]): ≤ 1 µg/mL
Activity (Streptococcus pneumoniae [19]): 100%
Activity (Streptococcus pneumoniae [20]): 100%
Activity (Streptococcus pneumoniae [21]): 100%
Activity (Streptococcus pneumoniae [22]): 100%
MIC (Streptococcus pneumoniae [23]): ≤ 1 µg/mL
MIC50 (Streptococcus pneumoniae [23]): ≤ 1 µg/mL
MIC90 (Streptococcus pneumoniae [23]): ≤ 1 µg/mL
